Measured values from US20170306090A1, “METHOD FOR MAKING POLYCARBONATE USING A LIQUID KETONE MIXTURE” (SABIC Global Technologies B.V., priority 2014, published 2017).

Assay: Solubility of diphenyl carbonate in various ketones (gravimetric method)
[1] = Example 1, Temperature 70 °C, molar ratio of ketone to DPC 1:1
[2] = Example 2, Temperature 50 °C, molar ratio of ketone to DPC 1:1
[3] = Example 3, Temperature 50 °C, molar ratio of ketone to DPC 1.5:1
[4] = Example 4, Temperature 25 °C, molar ratio of ketone to DPC 1:1
[5] = Example 5, Temperature 25 °C, molar ratio of ketone to DPC 1.5:1
[6] = Example 6, Temperature 25 °C, molar ratio of ketone to DPC 2:1

Description: The solubility of diphenyl carbonate in various ketones was determined. Solubility was determined based on a gravimetric method.

Row | Solubility of diphenyl carbonate in the ketone [1] | Solubility of diphenyl carbonate in the ketone [2] | Solubility of diphenyl carbonate in the ketone [3] | Solubility of diphenyl carbonate in the ketone [4] | Solubility of diphenyl carbonate in the ketone [5] | Solubility of diphenyl carbonate in the ketone [6] | SMILES
1 | Yes | No | Yes | No | No | Yes | CCC(=O)CC [Diethyl ketone, diethyl ketone]
2 | Yes | No | Yes | No | No | No | CC(=O)CC(C)C [MIBK, methyl isobutyl ketone]
